Columns and labels:
[1] = Anti-oxidant activity and protection from ischemic trauma (summary statement)
[2] = tested on: lipid peroxidation (TBAR) in rat head/brain homogenate; assay: Inhibition of TBAR production (lipid peroxidation) in ischemic rat brain homogenate, drug added in vitro; assay type: biochemical; settings: added in vitro before exposure to air (FIG. 3, FIG. 4)
From the text: (A) When cell membranes are exposed to ischemic or hypoxic insult, lipid peroxidation takes place. The degree of peroxidation can be measured by the production of thiobarbiturate reactive substances (TBAR). We have developed a simple assay method; we decapitate the rat and keep the head under a hypoxic condition for thirty minutes at 37 degrees and then homogenize it, then expose the homogenate to air for sixty minutes and measure the production of TBAR.

[3] = Superoxide scavenging activity, adenochrome method; assay type: biochemical; settings: 50 ug/ml each; absorbance at 480 nm (FIG. 1)
From the text: From the change of the slope, we can estimate the activity of scavenging action.

[4] = tested on: brain ischemia; assay: Survival rate after global brain ischemia; assay type: in vivo, Sprague-Dawley rats; settings: 9 mg/kg; OC-5186 injected I.P. thirty minutes prior to ischemia; control 8 out of 8 died within 2 days
Protocol: Adult, male Sprague-Dawley rats, weighing 300 to 350 grams, were used to prepare global ischemia. Anesthesia was induced and maintained with forane in 70% nitrous oxide-30% oxygen. After trachea was intubated, anesthesia was maintained using a ventilator. Both common carotid arteries were exposed and occluded by microaneurysmal clips. Then 12 to 14 ml of blood was withdrawn from the tail vein to bring the blood pressure to 30 mm Hg, which caused global ischemia. After twenty minutes of ischemia, blood was reinfused, clips were removed to induce recirculation. After twenty minutes of recirculation, the rat was decapitated, the brain was removed in ice-cold saline and then homogenized for TBAR measurement and spin trap measurement. For the measurement of survival rate, the wound was sutured and the animal recovered. The animal was returned to its cage. They were then observed for the survival rate. […] In this experiment, the brain was homogenized in the presence of 50 mM tert-butyl-(alpha)-phenylnitrone and the homogenate was introduced to electron spin resonance spectrophotometer.
In control experiment, where no drug was introduced, 8 out of 8 animals died within 2 days. […] Ascorbic acid (9 mg/kg) had no effect.

[5] = tested on: sickle red blood cells; assay: Formation of irreversibly sickled cells upon sickling-unsickling cycling in vitro; assay type: cell-based; settings: 10 ug/ml
From the text: The inventor previously developed the method to produce irreversibly sickled cells (ISC, which are irreversibly denatured sickle cells) by exposing sickle red blood cells to a repeated sickling-unsickling cycling in vitro. He used this system to determine the efficacy of drugs in protecting cell membranes (Ohnishi, Br. J. Haematol. 55:665-671, 1983; Ohnishi et al. Biochim. Biophys. Acta 886:119-129, 1986). […] These heavy cells were collected, the amount measured, and the percentage of production calculated.

[6] = tested on: FCR-3 strain P. falciparum; assay: Growth inhibition of P. falciparum in in vitro culture; assay type: cell-based; settings: 50 ug/ml, forty-eight hours
Protocol: The FCR-3 strain P. falciparum was used. Blood-stage parasites were cultured in RPMI-1640 (GIBCO Laboratories, Chagrin Falls, Ohio) in 96 well flat bottomed plates (Costar; Cambridge, Mass.) using the candle jar method described by Jensen and Trager (J. Parasitology 63:883,1977) and modified by Grun and Weidanz (J. Parasitology 73:384, 1987). Parasitemia was estimated on GIEMSA stained films of cultures. For drug administration, desired amounts of chemicals were added to an individual wells of 96 well plates. Forty-eight hours later, parasitemia was estimated and the degree of growth inhibition was determined.

[7] = tested on: mice; assay: Reduction of toxic side-effect of 5-FU by OC-5186 (Experiment 2); assay type: in vivo
Protocol: (§1) In the Experiment 2, the amount of the oligomer was cut down to 1 mg/kg/day to see whether we could still observe anti-cancer activity.

[8] = tested on: solid tumor (EAT cells); assay: Anti-cancer activity, solid tumor model (EAT cells inoculated subcutaneously); assay type: in vivo, mice; settings: 5-FU 20 mg/kg/day
Protocol: (§2) We used two mice models (Tomomatsu, Morita, Nagai, Shiwaku, Ichiki and Yonoki: Acta Med. Univ. Kagoshima. 17:99, 1975), i.e., (a) Ehrlich's ascites tumor (EAT) model and (b) a solid tumor model in which EAT cells were innoculated subcutaneously. In (a), 10^7 tumor cells were injected I.P. in a mouse with the body weight of 20 g. In (b), the same amount of tumor cells were injected subcutaneously in a mouse of similar weight. After 21 days, we measured several parameters: (i) the change of body weight; (ii) average time to their death, from which we measure extension of life span, and (iii) survival rate.
(§3) In the solid tumor model, we measured the extension of the life span and the survival rate. […] In the Experiment 1, from day 4 until day 13 (for ten days), anti-cancer drugs were administered. […] In the combination therapy, both drugs were administered simultaneously at their respective doses. […] With the 5-FU, they died in an average of 20.3 days. […] In the tumor model, similar tendency was observed.
as §1

[9] = tested on: Ehrlich's ascites tumor (EAT); assay: Anti-cancer activity, Ehrlich's ascites tumor (EAT) model; assay type: in vivo, mice; settings: 5-FU 20 mg/kg/day
Protocol: as §2
In the ascites tumor model, an increase of body weight is related to the increase in ascites. When the animal dies, we collect the ascites fluid and measure the number of tumor cells found in the ascites.
as §3, §1

## CCCCC[C@H](O)/C=C/C1=C(C/C=C\CCCC(=O)OC[C@H](O)[C@H]2OC(=O)C(O)=C2O)C(=O)CC1 [OC-5181]
[1]
  anti-oxidant activity: strong anti-oxidant activity
[2]
  inhibition of TBAR production / antioxidant activity in vitro: antioxidant activity comparable to free acid type prostaglandin oligomers, OC-2186
[3]
  superoxide-induced adenochrome formation (slope of the curve): the slope of the curve decreased

## O=C1O[C@H]([C@@H](O)CO)C(O)=C1O [Ascorbic acid]
[4]
  survival after ischemia: had no effect
[5]
  inhibition of formation of irreversibly denatured cells (in words): did not inhibit the formation
[6]
  inhibition of growth of P. falciparum (in words): did not inhibit the growth

## O=c1[nH]cc(F)c(=O)[nH]1 [5-FU, 5-fluorouracil]
[7]; administered for 23 days
  survival of chemotherapy / toxicity: all animals die if it is administered for 23 days
[7]; without OC-5186
  tolerated duration of 5-FU administration without OC-5186: ≤ 10 days
[8]; Experiment 1, day 4 to day 13, OC-5186 10 mg/kg/day, combination at respective doses, control 1.2 g
  Solid tumor weight (on 21 days): 0.70 g
[8]; Experiment 2, 23 days, OC-5186 1 mg/kg/day, combination, control 25%
  21 day surv., solid tumor model: 40%
[8]; Experiment 2, 23 days, OC-5186 1 mg/kg/day, combination, control 23.2 days
  Av. Surv., solid tumor model: 26 days
[9]; Experiment 1, day 4 to day 13, OC-5186 10 mg/kg/day, combination at respective doses, control 25%
  21 day survival, EAT model: 40%
[9]; Experiment 1, day 4 to day 13, OC-5186 10 mg/kg/day, combination at respective doses, control 17.0 days
  Average survival, EAT model: 20.3 days
[9]; Experiment 2, 23 days, OC-5186 1 mg/kg/day, combination, control 0%
  21 day survival, EAT model: 40%
[9]; Experiment 2, 23 days, OC-5186 1 mg/kg/day, combination, control 15.3 days
  Average survival, EAT model: 20.3 days
